15 molecules from US10287295B2, “TGF-β inhibitors” (Rigel Pharmaceuticals, Inc., priority 2015, dated 2019) can be followed below.

Assay [1] concerns TGF-β signaling (TGF-β pSMAD, MPC-11). Kind of assay: AlphaScreen SureFire SMAD3 (p-Ser423/425) assay, inhibition of TGF-β signaling. The assay is classed as cell-based. Particulars: Mus musculus, MPC-11, inhibition of TGF-β signaling, p-SMAD3 readout. On the technique in general: Bead proximity is the source of the signal in Alpha formats.
The subject of assay [2] is GDF8 signaling (GDF pSMAD, MPC11). Briefly: AlphaScreen SureFire SMAD3 (p-Ser423/425) assay, inhibition of GDF8 signaling. The assay is classed as cell-based. Particulars: Mus musculus, MPC-11, inhibition of GDF8 signaling, p-SMAD3 readout.

Structures are written as SMILES.

As a reminder, the IC50 is the concentration needed to halve the response being measured. A lower IC50 goes with higher potency. Turning to `Cn1cnc(-c2ccc(F)cc2)c1-c1ccc2cn[nH]c2c1` [Compound 49, 6-(4-(4-Fluorophenyl)-1-methyl-1H-imidazol-5-yl)-1H-indazole], the results for the IC50 in assay [1] and in assay [2] were 1210 nM and 570 nM, respectively.
For `Cn1cnc(-c2ccc(F)cc2)c1-c1ccc2ncn(C)c2c1` [Compound 50, 6-(4-(4-Fluorophenyl)-1-methyl-1H-imidazol-5-yl)-1-methyl-1H-benzo[d]imidazole] the same measures were 1870 nM and 1020 nM.
With `Cn1cnc(-c2ccc(F)cc2)c1-c1ccc2ncsc2c1` [Compound 51, 6-(4-(4-Fluorophenyl)-1-methyl-1H-imidazol-5-yl)benzo[d]thiazole], the values for the IC50 in assay [1] and in assay [2] were 2710 nM and 780 nM, respectively.
As for `Cc1cc(-c2nc(C)n(C)c2-c2ccc3[nH]ncc3c2)ccc1F` [Compound 52, 5-(4-(4-Fluoro-3-methylphenyl)-1,2-dimethyl-1H-imidazol-5-yl)-1H-indazole], the IC50 came to 910 nM in assay [1] and 210 nM in assay [2].
For `Cc1cc(-c2nc(C)n(C)c2-c2ccc3cn[nH]c3c2)ccc1F` [Compound 53, 6-(4-(4-Fluoro-3-methylphenyl)-1,2-dimethyl-1H-imidazol-5-yl)-1H-indazole], the IC50 in assay [1] is 3340 nM; in assay [2] it was 780 nM.
Regarding `Cc1cc(-c2nc(C)n(C)c2-c2ccc3ncn(C)c3c2)ccc1F` [Compound 54, 6-(4-(4-Fluoro-3-methylphenyl)-1,2-dimethyl-1H-imidazol-5-yl)-1-methyl-1H-benzo[d]imidazole], the results for the IC50 in assay [1] and in assay [2] were 3100 nM and 410 nM, respectively.
The matching figures for `Cc1cc(-c2nc(C)n(C)c2-c2ccc3ncsc3c2)ccc1F` [Compound 55, 6-(4-(4-Fluoro-3-methylphenyl)-1,2-dimethyl-1H-imidazol-5-yl)benzo[d]thiazole]: 7760 nM and 840 nM.
`Cc1cccc(-c2nc(C)n(C)c2-c2ccc3[nH]ncc3c2)c1` [Compound 56, 5-(1,2-Dimethyl-4-(m-tolyl)-1H-imidazol-5-yl)-1H-indazole]: the IC50 stood at 5300 nM in assay [1] and 730 nM in assay [2].
In the case of `Cc1cccc(-c2nc(C)n(C)c2-c2ccc3cn[nH]c3c2)c1` [Compound 57, 6-(1,2-Dimethyl-4-(m-tolyl)-1H-imidazol-5-yl)-1H-indazole], the IC50 in assay [1] came out at 9210 nM; in assay [2] it was 710 nM.
For the molecule `Cc1cccc(-c2nc(C)n(C)c2-c2ccc3ncn(C)c3c2)c1` [Compound 58, 6-(1,2-Dimethyl-4-(m-tolyl)-1H-imidazol-5-yl)-1-methyl-1H-benzo[d]imidazole], the IC50 was 9640 nM in assay [1] and 990 nM in assay [2].
In the case of `Cc1cccc(-c2nc(C)n(C)c2-c2ccc3ncsc3c2)c1` [Compound 59, 6-(1,2-Dimethyl-4-(m-tolyl)-1H-imidazol-5-yl)benzo[d]thiazole], the IC50 in assay [1] was found to be 6750 nM; in assay [2] it was 690 nM.
As to `Cn1cnc(-c2cccc(Cl)c2)c1-c1ccc2[nH]ncc2c1` [Compound 60, 5-(4-(3-Chlorophenyl)-1-methyl-1H-imidazol-5-yl)-1H-indazole], the IC50 is 60 nM in assay [1] and 20 nM in assay [2].
Take `Cn1cnc(-c2cccc(Cl)c2)c1-c1ccc2cn[nH]c2c1` [Compound 61, 6-(4-(3-Chlorophenyl)-1-methyl-1H-imidazol-5-yl)-1H-indazole]: the IC50 in assay [1] worked out at 150 nM; in assay [2] it was 30 nM.
For `Cn1cnc(-c2cccc(Cl)c2)c1-c1ccc2ncn(C)c2c1` [Compound 62, 6-(4-(3-Chlorophenyl)-1-methyl-1H-imidazol-5-yl)-1-methyl-1H-benzo[d]imidazole], the IC50 in assay [1] was 220 nM; in assay [2], 50 nM.
In the case of `Cn1cnc(-c2cccc(Cl)c2)c1-c1ccc2ncsc2c1` [Compound 63, 6-(4-(3-Chlorophenyl)-1-methyl-1H-imidazol-5-yl)benzo[d]thiazole], the IC50 in assay [1] is 230 nM; in assay [2], 60 nM.
